From US20260069581A1, “METHODS AND COMPOSITIONS FOR CANCER THERAPY” (OHIO STATE INNOVATION FOUNDATION, priority 2020, published 2026)

What was measured:
Kasumi-1 cells = assay: MTS cell viability of shRNA-stable Kasumi-1 cells treated with KPT-9274; format: cell-based; settings: Kasumi-1 scrambled control, 24 hour KPT-9274 treatment
From the text: FIGS. 2A-2M show show representative data for genetic depletion of HDAC8 or SIRT6 increases vulnerability of AML cell lines to KPT-9274 treatment. FIGS. 2A-2D show data for knockout efficiency of CDS- and 3′UTR-targeting shRNAs in MOLM13 and Kasumi-1 cells as assessed with Western blotting (FIGS. 2A, 2D) with GAPDH as a loading control. Densitometric quantification of protein band intensity is shown (n=2) in FIGS. 2B, 2E. FIGS. 2E-2H show representative data for depletion of HDAC8 or SIRT6 (as indicated in graphs) and sensitization of AML cell lines to KPT-9274 treatment. Dose-response curves of shRNA-stable MOLM13 and Kasumi-1 cells for 24-hour and 48-hour treatments are plotted. Cell viability was measured with MTS. […] Scrambled or gene-targeting shRNA-stable MOLM13 or Kasumi-1 cells were treated with IC20 dose of KPT-9274 for 48 hour and stained with Annexin/PI for flow cytometry analysis. Data are shown as mean±SEM of % population from duplicates. […] Quantification of the number of colonies formed by shRNA-stable Kasumi-1 and MOLM13 cells in the presence or absence of KPT-9274 in CFU assays. Indicated number of cells were seeded into Methocult and colonies were counted and replated by a double-blind approach after 7 days. […]
MTS assay. […] Plates were read by using a BioTek synergy H4 hybrid multimode microplate reader (Thermo Fisher Scientific) at 490 nM. […]

[1] = system: MOLM13 and Kasumi-1 cell lines; assay: Annexin/PI flow cytometry apoptosis of shRNA-stable cells treated with KPT-9274; format: cell-based, human; settings: KPT-9274 at sublethal IC20 dose, 48 hour
From the text: FIGS. 2A-2M show show representative data for genetic depletion of HDAC8 or SIRT6 increases vulnerability of AML cell lines to KPT-9274 treatment. FIGS. 2A-2D show data for knockout efficiency of CDS- and 3′UTR-targeting shRNAs in MOLM13 and Kasumi-1 cells as assessed with Western blotting (FIGS. 2A, 2D) with GAPDH as a loading control. Densitometric quantification of protein band intensity is shown (n=2) in FIGS. 2B, 2E. FIGS. 2E-2H show representative data for depletion of HDAC8 or SIRT6 (as indicated in graphs) and sensitization of AML cell lines to KPT-9274 treatment. Dose-response curves of shRNA-stable MOLM13 and Kasumi-1 cells for 24-hour and 48-hour treatments are plotted. Cell viability was measured with MTS. […] Scrambled or gene-targeting shRNA-stable MOLM13 or Kasumi-1 cells were treated with IC20 dose of KPT-9274 for 48 hour and stained with Annexin/PI for flow cytometry analysis. Data are shown as mean±SEM of % population from duplicates. FIGS. 2K-2L show representative data that KPT-9274 attenuates AML self-renewal and induces myeloid differentiation in HDAC8 or SIRT6-depleted cells. Quantification of the number of colonies formed by shRNA-stable Kasumi-1 and MOLM13 cells in the presence or absence of KPT-9274 in CFU assays. Indicated number of cells were seeded into Methocult and colonies were counted and replated by a double-blind approach after 7 days. […]

SIRT6-depleted cells = assay: Phospho-H2A.X staining in shSIRT6 cells with KPT-9274; format: cell-based; settings: SIRT6-depleted cells compared with scrambled control, in the presence of KPT-9274
Procedure: Thereafter, cells were fixed, permeabilized and stained with BV421 mouse anti-H2A.X (pS139) (Clone N1-431). Stained cells were analyzed by flow cytometry. Results are shown as mean±SEM of duplicates. *p<0.05. N.S.: not significant. […] Results are shown as mean±SEM of duplicates. *p<0.05. […] MOLM13 cells were treated with vehicle control, 0.4 μM or 0.8 μM AR-42 alone, 0.1 μM or 0.25 μM KPT-2974 alone and drug combination for 24 hours before being subject to Western blotting analysis of HR, NHEJ and ATM markers. GAPDH served as loading control. Results are representative of two independent experiments. In the FIG. the treatment concentrations, protein detected in the given Western blot, and molecular weight of the protein detected are as shown in the figure. […] Scrambled or shHDAC8-transduced MOLM13 cells were treated with vehicle, 0.1 μM or 0.25 μM KPT-2974 before being subject to immunoblotting analysis of DNA repair targets. GAPDH serves as loading control. Results are representative of two independent experiments. In the FIG. the treatment concentrations, protein detected in the given Western blot, and molecular weight of the protein detected are as shown in the figure. […] PAPR1 was immunoprecipitated and mono-ADP-ribosylation was detected by western blotting. […]
To elucidate the mechanism of the synergism between shSIRT6 and KPT-9274, the accumulation of phosph-H2A.X was measured. […]

[2] = Phase I trial; cited from earlier work

## Nc1ccc(/C=C/C(=O)NCc2cc3cc(-c4ccc(C(=O)N5CCC(F)(F)CC5)cc4)cc(-c4ccc(F)cc4)c3o2)cn1 [KPT-9274, (E)-3-(6-aminopyridin-3-yl)-N-[[5-[4-(4,4-difluoropiperidine-1-carbonyl)phenyl]-7-(4-fluorophenyl)-1-benzofuran-2-yl]methyl]prop-2-enamide]
Kasumi-1 cells
  IC50: did not achieve IC50
[1]; HDAC8 depletion
  percentage of apoptotic cells: significantly increase
[1]; SIRT6 depletion
  apoptosis of AML cells: enhance apoptosis
SIRT6-depleted cells
  DNA damage, phospho-H2A.X staining: increased phospho-H2A.X staining
[2]
  drug-related adverse events: anemia and fatigue
  tolerability vs 1st generation NAMPTi: better tolerated
